Test results taken from patent US4605642A, “CRF antagonists” (The Salk Institute for Biological Studies, priority 1984, dated 1986).

Legend:
ACTH secretion = ACTH secretion in vivo after intravenous hCRF in rat preparations
Experimental: (§1) Plasma levels of ACTH and β-END-LI are elevated for at least 5-20 minutes following the intraveneous administration of hCRF to nembutal-anesthesized male rats and to quiescent male or female rats with indwelling intravenous cannulae.

β-END-LI secretion = β-END-LI secretion in vivo after intravenous hCRF in rat preparations
Experimental: as §1

[1] = test system: secretion of β-endorphin by cultured rat pituitary cells; assay: Blocking of β-endorphin (β-END-LI) secretion by cultured rat pituitary cells; assay type: cell-based; conditions: general procedure set forth in Example III
Experimental: (§2) The effectiveness of synthetic CRF antagonists to block the secretion of ACTH and β-endorphin by cultured rat pituitary cells is measured using the procedure as generally set forth in Vale et al., Endocrinology, 91, 562 (1972). In vivo testing is carried out using the general procedure set forth in C. Rivier et al., Science, 218, 377 (1982).

[2] = Blood pressure lowering by antagonist; assay type: in vivo; conditions: general procedure set forth in Example III
[3] = test system: secretion of ACTH by cultured rat pituitary cells; assay: Blocking of oCRF-stimulated ACTH secretion by cultured rat pituitary cells; assay type: cell-based; conditions: for inhibition of the secretion of ACTH (in words): general procedure set forth in Example III
Experimental: as §2

[4] = test system: GRF-stimulated secretion of GH; assay: Specificity: GRF-stimulated secretion of GH; assay type: cell-based; conditions: specificity of inhibition
[5] = test system: TRF-stimulated secretion of TSH and prolactin; assay: Specificity: TRF-stimulated secretion of TSH and prolactin; assay type: cell-based; conditions: specificity of inhibition
spontaneous ACTH release = assay: Spontaneous ACTH release by adrenalectomized rats; assay type: in vivo, rat; conditions: iv 3 mg/kg BW (2.7 nmole)
Experimental: as §2
The in vivo effect of CRF antagonists is tested on the spontaneous ACTH release by adrenalectomized rats.

[6] = test system: GnRH-stimulated secretion of LH and FSH; assay: Specificity: GnRH-stimulated secretion of LH and FSH; assay type: cell-based; conditions: specificity of inhibition
[7] = intravenous, nembutal-anesthetized male rats and quiescent cannulated male or female rats

| Compound | inhibition of the secretion of β-END-LI (in words) [1] | inhibition of the secretion of ACTH (in words) [3] | further results |
| --- | --- | --- | --- |
| CC[C@H](C)[C@H](NC(=O)[C@@H](NC(=O)[C@H](CCC(=O)O)NC(=O)[C@H](CCSC)NC(=O)[C@H](CC(C)C)NC(=O)[C@H](CCCCN)NC(=O)[C@H](CCCNC(=N)N)NC(=O)[C@H](CC(N)=O)NC(=O)[C@H](CO)NC(=O)[C@H](Cc1c[nH]cn1)NC(=O)[C@H](C)NC(=O)[C@H](CCC(N)=O)NC(=O)[C@H](CCC(N)=O)NC(=O)[C@H](C)NC(=O)[C@H](CC(C)C)NC(=O)[C@H](CCC(N)=O)NC(=O)[C@H](CCC(=O)O)NC(=O)[C@H](C)NC(=O)[C@H](CCCNC(=N)N)NC(=O)[C@H](C)NC(=O)[C@H](CCSC)NC(=O)[C@H](CCC(=O)O)NC(=O)[C@H](CC(C)C)NC(=O)[C@@H](NC(=O)[C@H](CCC(=O)O)NC(=O)[C@H](CCCNC(=N)N)NC(=O)[C@H](CC(C)C)NC(=O)[C@H](CC(C)C)NC(=O)[C@H](Cc1c[nH]cn1)NC(=O)[C@H](Cc1ccccc1)NC(=O)[C@@H](NC(=O)[C@H](CC(C)C)NC(=O)[C@H](CC(=O)O)NC(=O)[C@H](CC(C)C)NC(=O)[C@H](CO)NC(=O)[C@@H](NC(=O)[C@@H]1CCCN1C(=O)[C@@H]1CCCN1C(=O)[C@H](CCC(=O)O)NC(=O)[C@H](CCC(=O)O)NC(=O)[C@@H](N)CO)[C@@H](C)CC)[C@@H](C)O)C(C)C)[C@@H](C)CC)C(N)=O [hCRF] | – | – | time for which plasma levels of ACTH are elevated (ACTH secretion; [7]): 5 to 20 min; stimulation of ACTH secretion in vivo (ACTH secretion; several rat preparations): powerful stimulator; time for which plasma levels of β-END-LI are elevated (β-END-LI secretion; [7]): 5 to 20 min; stimulation of β-END-LI secretion in vivo (β-END-LI secretion; several rat preparations): powerful stimulator |
| H-Asp-CML-Thr-Leu-Glu-CML-Leu-Arg-Glu-Met-CML-Glu-Met-Ala-Lys-Ala-Glu-Gln- CML-Ala-Glu-Gln-Ala-Ala-CML-Asn-Arg-Leu-CML-Leu-Glu-Glu-Ala-NH2 [[CML^10,14,19,27,33,38]-AHC(9-41)] | inhibits the secretion | inhibits the secretion | lowering of blood pressure [2]: very significant lowering of blood pressure |
| H-DLTFELLREVLEVARAEQLAQQAHSNRKLMEII-NH2 [[Glu^13, Val^21]-hCRF(9-41)] | inhibits the secretion | inhibits the secretion | – |
| H-DLTFHLLREMLEMAKAEQEAEQAALNRLLLEEA-NH2 [AHC (9-41)] | – | – | effect on the GRF-stimulated secretion of GH [4]: no effect; effect on the TRF-stimulated secretion of TSH and prolactin [5]: no effect; plasma ACTH levels (spontaneous ACTH release) (spontaneous ACTH release): marked decrease; effect on the GnRH-stimulated secretion of LH and FSH [6]: no effect; IC50 ([3]; cultured rat pituitary cells, 1 nM oCRF, five independent experiments, read-out: concentration that blocks the secretion of ACTH due to 1 nM oCRF by 50%): 197 ± 72 nM; type of inhibition of oCRF-stimulated ACTH secretion ([3]; several concentrations of oCRF and of antagonist, constant oCRF 1 nM): competitive inhibition; potency as CRF antagonist (in words) ([3]; test not stated at the place): particularly potent |
| H-DLTFHLLREVAEMTRAEQLAQQAHSNRKLMEII-NH2 [[Ala^19, Thr^22]-hCRF(9-41)] | inhibits the secretion | inhibits the secretion | – |
| H-DLTFHLLRNMIEMARNENQREQAGLNRKYLDEV-NH2 [Carp Urotensin I(9-41)] | inhibits the secretion | inhibits the secretion | – |
| H-DLTLELLREMLEMAKAEQEAEQAALNRLLLEEA-NH2 [[Leu^12, Glu^13]-AHC(9-41)] | inhibits the secretion | inhibits the secretion | – |
| H-IDLTFHLLRNMIEMARNENQREQAGLNRKYLDEV-NH2 [Carp Urotensin I(8-41)] | inhibits the secretion | inhibits the secretion | – |
| H-LDLTFHLLREVLEMAKAEQLAQQAHSNRKLLEII-NH2 [[Lys^23, Leu^38]-hCRF(8-41)] | inhibits the secretion | inhibits the secretion | – |
| H-LDLTLELLREMLEMEKAEKEAEQAALNRLLLEEA-NH2 [[Glu^13,22, Leu^12, Lys^26]-AHC(8-41)] | inhibits the secretion | inhibits the secretion | – |
| H-LSLELLRKMIEARKQEKEKQQAANNRLLLDII-NH2 | inhibits the secretion | inhibits the secretion | – |
